Consider eleven compounds from ChEMBL document CHEMBL1201862, “PubChem BioAssay data set” (2004).

Some test systems named below: K562; UACC-257; BT-549; SK-MEL-2; IGROV-1; SNB-75; LOX IMVI; SF-268; DU-145; Hs-578T; SW-620; RXF 393; T47D; SNB-19; MDA-MB-231; HT-29; MDA-MB-435; ACHN; NCI/ADR-RES; HCT-116.
Holding throughout (experiment): DTP human tumour cell line panel, 48 h

One may read the GI50 as the concentration giving 50% growth inhibition.

SMILES strings stand for the structures.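 Assay format: 96-well plates, 48-hour exposure. Abbreviation: GI50, concentration required for 50% inhibition of growth.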 Active and inactive are the calls of the source. No stated cut-off is given here; in the data, active = GI50 up to about 1.1 µM and inactive = higher.

In the case of `CC1CC(=O)NC2CC1C2(C)C` (stereo not given), the GI50 in the assay on K562, in the assay on UACC-257, in the assay with BT-549, with SK-MEL-2, with IGROV-1 and in the assay with SNB-75 was > 100 µM (inactive) in each case. Further, the GI50 in the assay with LOX IMVI, in the assay on SF-268, in the assay on DU-145, in the assay with Hs-578T, in the assay on SW-620 and in the assay on RXF 393 was > 100 µM (inactive) in each case. For the same compound, the GI50 with T47D, in the assay with SNB-19, with MDA-MB-231, in the assay with HT-29, with MDA-MB-435 and in the assay on ACHN was > 100 µM (inactive) in each case.

`CCC1=C(C)C(=O)N/C1=C\c1[nH]c(C)c([C@H](C)CCN)c1C`: the GI50 is 46.6 µM (inactive) with K562; 16.3 µM (inactive) in the assay on BT-549; 18.7 µM (inactive) in the assay with SK-MEL-2; 17 µM (inactive) with IGROV-1; 10.1 µM (inactive) in the assay with SNB-75; 15.3 µM (inactive) in the assay on LOX IMVI. Besides, the GI50 was 20 µM (inactive) in the assay with NCI/ADR-RES; 16.2 µM (inactive) in the assay on SF-268; 16.9 µM (inactive) in the assay with DU-145; 11.9 µM (inactive) with Hs-578T; 16.6 µM (inactive) in the assay on SW-620; 9.98 µM (inactive) in the assay on T47D. The GI50 in the assay with HCT-116 is 14.5 µM (inactive); in the assay with MDA-MB-231, 17.4 µM (inactive); with HT-29, 15.7 µM (inactive); in the assay on MDA-MB-435, 15.3 µM (inactive); in the assay on ACHN, 18.6 µM (inactive).

On to `COC(=O)NC1(NC(=O)OC)NC(=O)c2cc(OC)c(OC)c(OC)c2N1`, for which the GI50 is 12.3 µM (inactive) in the assay with K562; > 100 µM (inactive) with UACC-257; 22.4 µM (inactive) in the assay with BT-549; 0.0132 µM (active) with SK-MEL-2; 53.1 µM (inactive) with IGROV-1; 13.7 µM (inactive) in the assay on SNB-75. Moreover, the GI50 is 15.1 µM (inactive) with NCI/ADR-RES; 28.1 µM (inactive) in the assay on SF-268; 32 µM (inactive) in the assay with DU-145; 13.3 µM (inactive) in the assay with Hs-578T; 18.2 µM (inactive) in the assay on SW-620; 43.5 µM (inactive) in the assay with T47D. In addition, the GI50 is 44.9 µM (inactive) with SNB-19; 26.1 µM (inactive) in the assay on HCT-116; 36.2 µM (inactive) in the assay with MDA-MB-231; 36.9 µM (inactive) in the assay with HT-29; 86.5 µM (inactive) with ACHN.

As to `S=C(N/N=C(/c1ccccc1)c1ccccn1)N1CCCCC1`, the GI50 in the assay with K562 was < 0.0161 µM (active); in the assay with UACC-257, < 0.0183 µM (active); with BT-549, 1.25 µM (inactive); in the assay on SK-MEL-2 it was 0.741 µM (active); with IGROV-1, < 0.0164 µM (active); in the assay with SNB-75 it was 1.25 µM (inactive). Moreover, the GI50 in the assay with DU-145 is 0.618 µM (active); in the assay on Hs-578T it was 0.237 µM (active); in the assay with SW-620 it was < 0.0226 µM (active); in the assay on RXF 393, 1.28 µM (inactive); in the assay on T47D, 0.0927 µM (active); in the assay on SNB-19 it was 0.966 µM (active). In addition, the GI50 in the assay with HCT-116 was 0.01 µM (active); in the assay with MDA-MB-231, 0.0273 µM (active); in the assay with HT-29, < 0.016 µM (active); in the assay with MDA-MB-435, 0.134 µM (active); with ACHN, < 0.0443 µM (active).

As for `Cc1ccc(NNc2cc(=O)[nH]c(=O)[nH]2)cc1Cl`, the GI50 in the assay on K562 was 2.99 µM (inactive); with UACC-257 it was 17.5 µM (inactive); with BT-549, 41.1 µM (inactive); in the assay on SK-MEL-2 it was 16.5 µM (inactive); in the assay on IGROV-1 it was 13.8 µM (inactive); with SNB-75, > 100 µM (inactive). The GI50 in the assay with LOX IMVI is 5.71 µM (inactive); in the assay with NCI/ADR-RES, 95.3 µM (inactive); with SF-268 it was 43.2 µM (inactive); with DU-145, 37 µM (inactive); with Hs-578T it was 83.2 µM (inactive); in the assay with SW-620 it was 14.4 µM (inactive). The GI50 in the assay on RXF 393 was 16.5 µM (inactive); with T47D, 9.95 µM (inactive); with SNB-19, 24.4 µM (inactive); in the assay with HCT-116, 14.9 µM (inactive); in the assay with MDA-MB-231, 15.8 µM (inactive); in the assay on HT-29 it was 15 µM (inactive). In the assay on ACHN, the GI50 is 9.42 µM (inactive).

Turning to `C=C1C(=O)C=C[C@]2(C)CC[C@H]3C(=C)C(=O)O[C@@H]3[C@@H]12`, the GI50 in the assay with K562 was 1.39 µM (inactive); in the assay with UACC-257, 2.67 µM (inactive); with BT-549, 2.35 µM (inactive); in the assay with SK-MEL-2 it was 2.55 µM (inactive); with IGROV-1, 1.29 µM (inactive); in the assay with LOX IMVI, 1.8 µM (inactive). For the same compound, the GI50 with NCI/ADR-RES is 2.34 µM (inactive); in the assay on SF-268, 3.15 µM (inactive); with DU-145 it was 2.09 µM (inactive); with Hs-578T it was 4.1 µM (inactive); in the assay with SW-620, 0.813 µM (active); in the assay on RXF 393, 1.45 µM (inactive). For the same compound, the GI50 with T47D was 2.22 µM (inactive); in the assay with SNB-19, 14.6 µM (inactive); in the assay with HCT-116, 0.195 µM (active); in the assay on MDA-MB-231, 4.08 µM (inactive); with HT-29, 1.56 µM (inactive); in the assay on MDA-MB-435, 1.57 µM (inactive). Moreover, the GI50 in the assay on ACHN is 0.9 µM (active).

As for `C[N+](C)(C)C1=NNC2=Nc3ccccc3SC2=C1`, the GI50 with K562 is 17.9 µM (inactive); in the assay with UACC-257, 23 µM (inactive); in the assay with BT-549 it was 28.6 µM (inactive); with SK-MEL-2, 14.1 µM (inactive); in the assay with IGROV-1, 17 µM (inactive); in the assay with LOX IMVI, 18.8 µM (inactive). Besides, the GI50 was 16.1 µM (inactive) in the assay with NCI/ADR-RES; 35 µM (inactive) with SF-268; 27.6 µM (inactive) in the assay on DU-145; 30 µM (inactive) with Hs-578T; 24.4 µM (inactive) with SW-620; 20.4 µM (inactive) in the assay with RXF 393. Besides, the GI50 with T47D is 4.11 µM (inactive); in the assay on SNB-19, 26.5 µM (inactive); in the assay with HCT-116, 13.9 µM (inactive); in the assay with MDA-MB-231, 14.6 µM (inactive); with HT-29, 13.5 µM (inactive); in the assay on MDA-MB-435 it was 22.2 µM (inactive). Also, the GI50 in the assay with ACHN is 16 µM (inactive).

`CCOC(=O)c1c(N=C(S)Nc2ccc(Cl)cc2)sc2c1CCN(C)C2`: the GI50 was 61 µM (inactive) in the assay on K562; > 100 µM (inactive) with UACC-257; 78.9 µM (inactive) with BT-549; > 100 µM (inactive) with SK-MEL-2; > 100 µM (inactive) in the assay with IGROV-1; > 100 µM (inactive) with NCI/ADR-RES. In addition, the GI50 with SF-268 is > 100 µM (inactive); in the assay with DU-145, > 100 µM (inactive); in the assay with Hs-578T, > 100 µM (inactive); in the assay on RXF 393 it was 32.7 µM (inactive); in the assay with T47D, > 100 µM (inactive); in the assay on SNB-19 it was > 100 µM (inactive). The GI50 with HCT-116, with MDA-MB-231, in the assay with HT-29 and with ACHN was > 100 µM (inactive) in each case.

`c1ccc2c(c1)[nH]c1nc3cc(-c4ccc5nc6c(nc5c4)[nH]c4ccccc46)ccc3nc12`: the GI50 with UACC-257 was > 100 µM (inactive); in the assay on BT-549 it was > 100 µM (inactive); in the assay on SK-MEL-2 it was > 100 µM (inactive); in the assay on IGROV-1, > 100 µM (inactive); in the assay with SNB-75 it was > 100 µM (inactive); in the assay on LOX IMVI, > 39.9 µM (inactive). For the same compound, the GI50 in the assay with SF-268, with DU-145, with Hs-578T, with SW-620, in the assay on RXF 393 and in the assay with T47D was > 100 µM (inactive) throughout. Besides, the GI50 with SNB-19 is > 100 µM (inactive); with HCT-116 it was > 69.7 µM (inactive); with MDA-MB-231, > 34.5 µM (inactive); with HT-29 it was > 100 µM (inactive); in the assay with MDA-MB-435 it was > 100 µM (inactive); with ACHN, > 52.8 µM (inactive).

For the compound `CC1=NC(=Cc2ccc([N+](=O)[O-])cc2)C(=O)N1n1c(-c2ccccc2)nc2ccccc2c1=O`, the GI50 in the assay with K562 is 40.6 µM (inactive); in the assay on UACC-257, 42.9 µM (inactive); with BT-549 it was 85.3 µM (inactive); in the assay on IGROV-1, 53.6 µM (inactive); with SNB-75, 15.7 µM (inactive); in the assay on LOX IMVI it was 34.7 µM (inactive). Besides, the GI50 in the assay with SF-268 is 37.8 µM (inactive); in the assay on DU-145, 51.8 µM (inactive); with Hs-578T it was 50.2 µM (inactive); in the assay with SW-620, 36.7 µM (inactive); with T47D, 39.8 µM (inactive); in the assay with SNB-19, 55.2 µM (inactive). In addition, the GI50 was 32.1 µM (inactive) in the assay on HCT-116, 63.7 µM (inactive) in the assay on MDA-MB-231, 37 µM (inactive) in the assay with HT-29 and 47.6 µM (inactive) in the assay with MDA-MB-435.

As for `CC[n+]1[b-](C(C)(C)C)n(/N=C(\C)C(C)(C)C)[b-](C(C)(C)C)[n+]1CC`, the GI50 in the assay with K562 is 71.8 µM (inactive); in the assay on UACC-257, > 100 µM (inactive); in the assay on BT-549, > 100 µM (inactive); in the assay on SK-MEL-2 it was > 100 µM (inactive); in the assay with IGROV-1 it was > 100 µM (inactive); with SNB-75 it was > 100 µM (inactive). The GI50 in the assay on LOX IMVI is > 100 µM (inactive); in the assay with NCI/ADR-RES, 87.1 µM (inactive); with SF-268, > 100 µM (inactive); in the assay with Hs-578T it was > 100 µM (inactive); in the assay with SW-620, > 100 µM (inactive); with RXF 393, > 100 µM (inactive). Further, the GI50 in the assay with T47D, with SNB-19, in the assay on HCT-116, with MDA-MB-231, in the assay on HT-29 and with MDA-MB-435 was > 100 µM (inactive) in each case. The GI50 with ACHN is > 100 µM (inactive).
